How the values were obtained:
Type in all cases: cell-based, human
[1] = test system: HBA mRNA in HEK293T cells; assay: qPCR of HBA mRNA levels; conditions: HBA sgRNAs; ABA vs DMSO
Procedure: (§1) To determine if the new method can be used to modify H3K27Ac at other gene loci, sgRNAs were designed that target the promoter region of other genes with low expression levels in HEK293T cells, including GRM2, HBA and MYOD1 (Table 1).
(§2) Human embryonic kidney cell HEK293T (American Type Culture Collection, Manassas, Va.) was cultured in Dulbecco's modified Eagle's medium (DMEM) (Gibco) with 10% FBS (Atlanta Biologicals), 1× GlutaMax (Gibco, Thermo Fisher Scientific, Inc., Waltham, Mass.), and 1× penicillin/streptomycin (Pen/Strep; Gibco, Thermo Fisher Scientific, Inc., Waltham, Mass.). Cells (100,000/ml) were plated in 24-well or 10-cm cell culture plate the day before transfection. […]
(§3) Total RNA was extracted using the EZNA Total RNA Kit I (Omega Bio-tek, Inc., Norcross, Ga.). qPCR reactions were performed on cDNA prepared from 1,000 ng of total cellular RNA using the High-Capacity cDNA Reverse Transcription Kit (Applied Biosystems Co., Thermo Fisher Scientific, Inc., Foster City, Calif.). […] Data were analyzed using the SDS software, version 2.4 (Applied Biosystems Co., Thermo Fisher Scientific, Inc., Foster City, Calif.), by the ΔΔCt method: the Ct values of target gene were normalized to Ct values of GAPDH, the folds of target gene expression changes were normalized to experimental controls. Analyzed data are reported as the mean±s.e.m. for biological replicates. […]

[2] = test system: GRM2 mRNA in HEK293T cells; assay: qPCR of GRM2 mRNA levels; conditions: GRM2 sgRNAs; ABA vs DMSO
Procedure: as §1, §2, §3

[3] = test system: HBA locus in HEK293T cells; assay: ChIP-qPCR of FLAG-ABI-P300 and H3K27Ac at the HBA locus; conditions: HBA sgRNAs; ABA treatment for 48 hours
Procedure: as §1
Human embryonic kidney cell HEK293T (American Type Culture Collection, Manassas, Va.) was cultured in Dulbecco's modified Eagle's medium (DMEM) (Gibco) with 10% FBS (Atlanta Biologicals), 1× GlutaMax (Gibco, Thermo Fisher Scientific, Inc., Waltham, Mass.), and 1× penicillin/streptomycin (Pen/Strep; Gibco, Thermo Fisher Scientific, Inc., Waltham, Mass.). Cells (100,000/ml) were plated in 24-well or 10-cm cell culture plate the day before transfection. For each well of 24-well plate transfection, 500 ng of dCas9-PYL-HA, 420 ng of FLAG-ABI-P300, and a total amount of 200-ng mix of gRNAs, with a 50-ng per each gRNA, were mixed with 50×(v/w) Opti-MEM (Gibco, Thermo Fisher Scientific, Inc., Waltham, Mass.), then incubate with the same volume of 3 μg PEI-Opti-MEM solution for 20 minutes at room temperature. Then, 100 μL of PEI-combined plasmids were added to every single well of 24-well plate and cultured for 24 hours before experiments were performed. For a 10 cm plate, 1 mL of PEI-combined plasmids were needed. After six hours transfection, cells were washed and incubated for another 1-72 hours before experiments were performed. […]

[4] = test system: MYOD1 mRNA in HEK293T cells; assay: qPCR of MYOD1 mRNA levels; conditions: MYOD1 sgRNAs; ABA vs DMSO
Procedure: as §1, §2, §3

CC1=CC(=O)CC(C)(C)[C@@]1(O)/C=C/C(C)=C\C(=O)O [ABA, abscisic acid]
level of HBA mRNA [1]: increases correspondingly
level of GRM2 mRNA [2]: increases correspondingly
enrichment of FLAG-ABI-P300 at the HBA locus [3]: causes the enrichment
enrichment of H3K27Ac at the HBA locus [3]: causes the enrichment
level of MYOD1 mRNA [4]: increases correspondingly

Source: patent publication US20190256827A1, “EPIGENOME EDITING SYSTEMS AND METHODS” (STC.UNM, priority 2017, published 2019)
